For data set [1] the following is noted: the compound itself; not examined in the study; cited from earlier work.
Data set [2] deals with tubulin. Nature of the data set: tubulin aggregation (polymerization) assay, OD 340 nm. It counts as biochemical. The source says: This assay has been described, for example, in Shelanski, M. L., Gaskin, F. and Cantor, C. R. (1973). Microtubule assembly in the absence of added nucleotides. Proc. Natl. Acad. Sci. U.S.A. 70, 765-768; and Lee, J. C. and Timasheff, S. N. (1977). In vitro reconstitution of calf brain microtubules: effects of solution variable. Biochemistry, 16, 1754-1762.
The assay protocol was designed for performing a single assay in a cuvette using a spectrophotometer set at 340 nm in a kinetic mode. HTS-Tubulin was purchased from Cytoskeleton, Inc. and is supplied in multiple vials as lyophilized protein. […]
The tubulin-assembly reaction was carried out by exposing the tubulin in GPEM buffer, at a concentration of 1.5 mg/ml to the following polymerization conditions: (i) a buffer (control), (ii) tubulin alone (2nd control); (iii) taxol, added to a final concentration of 4 μM, and (iv) the M2(3) taxol signal from above, transduced over a 20 minute period at a transduction voltage calculated to produce an approximately 1.693294 mG magnetic field. Change in optical absorption at 340 nm was measured continuously for each sample, and the OD340 data was used to calculate a rate of tubulin polymerization (dA/minute at 340 nm) at each one minute interval during the transduction study.
The Vmax of the reaction was also calculated for each sample at the end of the 20 minute assay period. […]

`CC(=O)O[C@H]1C(=O)[C@@]2(C)[C@H]([C@H](OC(=O)c3ccccc3)[C@]3(O)C[C@H](OC(=O)[C@H](O)[C@@H](NC(=O)c4ccccc4)c4ccccc4)C(C)=C1C3(C)C)[C@]1(OC(C)=O)CO[C@@H]1C[C@@H]2O` [taxol]: the “delivery to the brain” value in data set [1] was “poorly deliver to the brain”. Besides, the “rate of tubulin polymerization (dA/minute at 340 nm)” value in data set [2] (at two minutes, taxol 4 μM, FIG. 16B) is listed as “increased significantly”. Moreover, in data set [2] (taxol at 4 μM, tubulin 1.5 mg/ml in GPEM buffer, end of 20 minute assay, FIG. 17), the “Vmax (single composite, maximum rate of reaction over the entire assay)” value is given as approximately 1.8.

Values taken from patent publication US20100244818A1, “APPARATUS AND METHOD FOR TRANSDUCING AN IN VITRO OR MAMMALIAN SYSTEM WITH A LOW-FREQUENCY SIGNAL” (priority 2006, published 2010).
